Source: patent publication US7238666B2, “Method of inhibiting fibrosis with a somatostatin agonist” (Societe de Conseils de Recherches et d'Applications …, priority 1996, dated 2007)
pKi: −log10 of the molar value. Positions of bridges follow the written chain, without caps; N, C: chain ends. Non-standard residues stand in square brackets, D forms with d. Residues, ends and D or L forms follow the SMILES beside them.

Tests used:
human SSTR-3 = human SSTR-3 (Homo sapiens, UniProt P32745); experiment: Somatostatin receptor binding assay, [125I-Tyr11]somatostatin-14, membranes of transfected CHO-K1 cells; settings: 0.05 nM [125I-Tyr11]somatostatin-14, 30 min at 30° C., Ki=IC50/[1+(LC/LEC)], read-out: Ki hSSTR-3
Chain of human SSTR-3 (P32745 whole entry): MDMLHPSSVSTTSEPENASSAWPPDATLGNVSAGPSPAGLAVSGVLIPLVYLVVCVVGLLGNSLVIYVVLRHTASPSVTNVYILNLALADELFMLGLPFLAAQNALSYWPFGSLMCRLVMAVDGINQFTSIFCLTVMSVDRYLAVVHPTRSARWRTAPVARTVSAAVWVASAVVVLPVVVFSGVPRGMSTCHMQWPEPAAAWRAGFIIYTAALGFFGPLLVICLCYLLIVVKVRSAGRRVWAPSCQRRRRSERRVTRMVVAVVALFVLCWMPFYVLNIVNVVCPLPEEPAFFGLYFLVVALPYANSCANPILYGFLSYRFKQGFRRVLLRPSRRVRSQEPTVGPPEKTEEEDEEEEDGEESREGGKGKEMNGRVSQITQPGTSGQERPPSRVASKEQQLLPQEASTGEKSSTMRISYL

human SSTR-5 = human SSTR-5 (Homo sapiens, UniProt P35346); experiment: as above; settings: 0.05 nM [125I-Tyr11]somatostatin-14, 30 min at 30° C., Ki=IC50/[1+(LC/LEC)], read-out: Ki hSSTR-5
Chain of human SSTR-5 (P35346 whole entry): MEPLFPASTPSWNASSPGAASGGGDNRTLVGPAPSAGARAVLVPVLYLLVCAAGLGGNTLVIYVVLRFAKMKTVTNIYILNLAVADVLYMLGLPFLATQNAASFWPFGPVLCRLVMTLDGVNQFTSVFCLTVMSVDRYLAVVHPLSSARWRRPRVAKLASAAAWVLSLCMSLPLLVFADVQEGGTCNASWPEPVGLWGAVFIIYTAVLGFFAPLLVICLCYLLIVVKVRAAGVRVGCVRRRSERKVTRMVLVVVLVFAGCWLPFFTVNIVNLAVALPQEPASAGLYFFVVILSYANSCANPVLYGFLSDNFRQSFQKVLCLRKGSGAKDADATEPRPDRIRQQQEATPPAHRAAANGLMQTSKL

## C[C@@H](O)[C@@H]1NC(=O)[C@H](CCCCN)NC(=O)[C@@H](Cc2c[nH]c3ccccc23)NC(=O)[C@H](Cc2ccccc2)NC(=O)[C@H](Cc2ccccc2)NC(=O)[C@@H](N)CSSC[C@@H](C(N)=O)NC(=O)[C@H](Cc2ccccc2)NC1=O [BIM-23268, H-Cys-Phe-Phe-D-Trp-Lys-Thr-Phe-Cys-NH2] (H-CFF[dW]KTFC-NH2; disulfide 1-8)
Human SSTR-3
  pKi: 7.21
Human SSTR-5
  pKi: 9.42
